Experimental data published in publication PMC13128454, “Mutant p53 protein accumulation is selectively targetable by proximity-inducing drugs” (Nature Chemical Biology, 2025).
Several values for one entry are separate records, joined by “and”; a condition that tells them apart may be missing. Equal entries are not always repeated.

Legend:
[1] = tested on: Calu-1 cells stably expressing Halo–p53 WT (FL)–mCherry–2A–mTagBFP2-V5; assay: CellTiter-Glo cell viability; format: cell-based; conditions: for mean_norm: Cell_Type WT; for replicates (raw CTG signal): p53_construct WT, CTG 4 days
Protocol: (§1) Cells were plated in 384-well plates (typically 1,500 cells per well) with varying concentrations of compounds, with a total volume of 50 μl per well. CTG reagent was added (25 μl) to the solutions, mixed and read out using an EnVision 2105 multimode plate reader.

[2] = tested on: Calu-1 cells stably expressing Halo–p53-Y220C (FL)–mCherry–2A–mTagBFP2-V5; assay: CellTiter-Glo cell viability; format: cell-based; conditions: Cell_Type Y220C
Protocol: as §1

CC[C@@H]1C(=O)N(C)c2cnc(Nc3ccc(C(=O)NC4CCN(C)CC4)cc3OC)nc2N1C1CCCC1 [BI2536]
mean_norm ([1]; Concentration 0.00976562): 0.9965
mean_norm ([1]; Concentration 0.0195312): 0.9819
mean_norm ([1]; Concentration 0.0390625): 0.9464
mean_norm ([1]; Concentration 0.078125): 0.9231
mean_norm ([1]; Concentration 0.15625): 0.8923
mean_norm ([1]; Concentration 0.3125): 0.9222
mean_norm ([1]; Concentration 0.625): 0.8706
mean_norm ([1]; Concentration 1.25): 0.9152
mean_norm ([1]; Concentration 2.5): 0.732
mean_norm ([1]; Concentration 5): 0.654
replicates (raw CTG signal) ([1]; Compound_conc 0.0488281): 244635 and 211925 and 234768 and 234225
replicates (raw CTG signal) ([1]; Compound_conc 0.0976562): 273323 and 237458 and 247150 and 303994
replicates (raw CTG signal) ([1]; Compound_conc 0.195312): 238397 and 225982 and 259666 and 218737
replicates (raw CTG signal) ([1]; Compound_conc 0.390625): 236109 and 227126 and 240832 and 277749
replicates (raw CTG signal) ([1]; Compound_conc 0.78125): 245303 and 237908 and 252002 and 245374
replicates (raw CTG signal) ([1]; Compound_conc 1.5625): 272283 and 224772 and 244085 and 261410
replicates (raw CTG signal) ([1]; Compound_conc 3.125): 243376 and 233836 and 240215 and 246677
replicates (raw CTG signal) ([1]; Compound_conc 6.25): 186650 and 172938 and 193716 and 217878
replicates (raw CTG signal) ([1]; Compound_conc 12.5): 153573 and 146180 and 148955 and 165621
replicates (raw CTG signal) ([1]; Compound_conc 25): 156770 and 147371 and 141939 and 149390
replicates (raw CTG signal) ([1]; Compound_conc 50): 121176 and 111722 and 112653 and 125709
replicates (raw CTG signal) ([1]; Compound_conc 100): 91299 and 91521 and 110253 and 107241
mean_norm ([2]; Concentration 0.00976562): 1.033
mean_norm ([2]; Concentration 0.0195312): 1.042
mean_norm ([2]; Concentration 0.0390625): 1.012
mean_norm ([2]; Concentration 0.078125): 1.001
mean_norm ([2]; Concentration 0.15625): 1.013
mean_norm ([2]; Concentration 0.3125): 0.9845
mean_norm ([2]; Concentration 0.625): 0.8987
mean_norm ([2]; Concentration 1.25): 0.7731
mean_norm ([2]; Concentration 2.5): 0.741
mean_norm ([2]; Concentration 5): 0.654
